Test results: PubChem BioAssay AID1963451 (Molecular Pharmacology Branch, DTP, NCI, 2024)

System: 521955-158-R6-J3-PDC complex spheroid growth, % test/control
Experiment: Anticancer human tumor 521955-158-R6-J3-PDC patient-derived pancreatic carcinoma cell line growth inhibition [Asc]
Conditions: for viability, T/C: stronger effect = lower value
Outline: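 Concentration series start at each agent's clinical Cmax, or at 10 microM when none is established, and drop in half-log steps; agents are applied alone or together to complex spheroids built with HUVEC and hMSC.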

[1] = curve of first compound, second compound 0.0316 µM
[2] = curve of first compound, second compound 0.1 µM
[3] = curve of first compound, second compound 0.316 µM
[4] = curve of first compound, second compound 1 µM
[5] = curve of first compound, second compound 3.16 µM
[6] = curve of first compound, second compound 10 µM
[7] = second compound 0.0316 µM, first compound 0.00316 µM
[8] = second compound 0.0316 µM, first compound 0.01 µM
[9] = second compound 0.0316 µM, first compound 0.0316 µM
[10] = second compound 0.0316 µM, first compound 0.1 µM
[11] = second compound 0.0316 µM, first compound 0.316 µM
[12] = second compound 0.0316 µM, first compound 1 µM
[13] = second compound 0.1 µM, first compound 0.00316 µM
[14] = second compound 0.1 µM, first compound 0.01 µM
[15] = second compound 0.1 µM, first compound 0.0316 µM
[16] = second compound 0.1 µM, first compound 0.1 µM
[17] = second compound 0.1 µM, first compound 0.316 µM
[18] = second compound 0.1 µM, first compound 1 µM
[19] = second compound 0.316 µM, first compound 0.00316 µM
[20] = second compound 0.316 µM, first compound 0.01 µM
[21] = second compound 0.316 µM, first compound 0.0316 µM
[22] = second compound 0.316 µM, first compound 0.1 µM
[23] = second compound 0.316 µM, first compound 0.316 µM
[24] = second compound 0.316 µM, first compound 1 µM
[25] = second compound 1 µM, first compound 0.00316 µM
[26] = second compound 1 µM, first compound 0.01 µM
[27] = second compound 1 µM, first compound 0.0316 µM
[28] = second compound 1 µM, first compound 0.1 µM
[29] = second compound 1 µM, first compound 0.316 µM
[30] = second compound 1 µM, first compound 1 µM
[31] = second compound 3.16 µM, first compound 0.00316 µM
[32] = second compound 3.16 µM, first compound 0.01 µM
[33] = second compound 3.16 µM, first compound 0.0316 µM
[34] = second compound 3.16 µM, first compound 0.1 µM
[35] = second compound 3.16 µM, first compound 0.316 µM
[36] = second compound 3.16 µM, first compound 1 µM
[37] = second compound 10 µM, first compound 0.00316 µM
[38] = second compound 10 µM, first compound 0.01 µM
[39] = second compound 10 µM, first compound 0.0316 µM
[40] = second compound 10 µM, first compound 0.1 µM
[41] = second compound 10 µM, first compound 0.316 µM
[42] = second compound 10 µM, first compound 1 µM
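Note: spheroids exposed to compounds for 7 days.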
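Throughout, for viability, T/C: 100% = DMSO vehicle control wells.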

COc1c(OCCCN2CCOCC2)ccc2c3n(c(=NC(=O)c4cnc(N)nc4)nc12)CCN3 + Cc1c(S(C)(=O)=O)c(-c2cc(F)cc(N3CCN(c4ccc(NS(=O)(=O)c5ccc(NC(CCN6CCC(C(=O)OCCCP(=O)(O)O)CC6)CSc6ccccc6)c(S(=O)(=O)C(F)(F)F)c5)cc4)CC3)c2)c(-c2ccc(Cl)cc2)n1C(C)C was tested, and the IC50 [1] was 222 nM, the IC50 [2] was 84.7 nM and the IC50 [3] was < 3.16 nM. The IC50 [4] was < 3.16 nM, the IC50 [5] was < 3.16 nM and the IC50 [6] was < 3.16 nM. The viability, T/C [7] was 87.5%, the viability, T/C [8] was 84.8% and the viability, T/C [9] was 55.2%. The viability, T/C [10] was 70.2%, the viability, T/C [11] was 46.7% and the viability, T/C [12] was 27.4%. For the same molecule, the viability, T/C [13] was 82.7%, the viability, T/C [14] was 61% and the viability, T/C [15] was 61.6%. It also gave a viability, T/C [16] of 53.4%, a viability, T/C [17] of 34% and a viability, T/C [18] of 17.3%. For the same molecule, the viability, T/C [19] was 42%, the viability, T/C [20] was 38.9% and the viability, T/C [21] was 39%. For the same molecule, the viability, T/C [22] was 30.5%, the viability, T/C [23] was 28% and the viability, T/C [24] was 13%. The viability, T/C [25] was 33.9%, the viability, T/C [26] was 36.3% and the viability, T/C [27] was 33.5%. The viability, T/C [28] was 20.5%, the viability, T/C [29] was 15.8% and the viability, T/C [30] was 6.07%. For the same molecule, the viability, T/C [31] was 15.3%, the viability, T/C [32] was 18.2% and the viability, T/C [33] was 16.9%. It also gave a viability, T/C [34] of 11.9%, a viability, T/C [35] of 4.31% and a viability, T/C [36] of 2.03%. For the same molecule, the viability, T/C [37] was 17.6%, the viability, T/C [38] was 14.4% and the viability, T/C [39] was 8.58%. The viability, T/C [40] was 7.73%, the viability, T/C [41] was 2.64% and the viability, T/C [42] was 1.68%.
C=C(F)C(=O)N1CCN(c2nc(OCC3CCCN3C)nc3c2CCN(c2cccc4cccc(Cl)c24)C3)CC1CC#N (stereo not drawn) + CNC(C)C(=O)NC1CN(S(=O)(=O)c2cccc(S(=O)(=O)N3CCC4CCC(C(=O)NC(c5ccccc5)c5ccccc5)N4C(=O)C(NC(=O)C(C)NC)C3)c2)CCC2CCC(C(=O)NC(c3ccccc3)c3ccccc3)N2C1=O showed an IC50 (curve of first compound, second compound 0.00316 µM) of 4740 nM, an IC50 (curve of first compound, second compound 0.01 µM) of 4130 nM and an IC50 [1] of 3960 nM. For the same molecule, the IC50 [2] was 4130 nM, the IC50 [3] was 3840 nM and the IC50 [4] was 3460 nM. The viability, T/C (second compound 0.00316 µM, first compound 0.0316 µM) was 92.6%, the viability, T/C (second compound 0.00316 µM, first compound 0.1 µM) was 88.5% and the viability, T/C (second compound 0.00316 µM, first compound 0.316 µM) was 81.2%. The viability, T/C (second compound 0.00316 µM, first compound 1 µM) was 77.6%, the viability, T/C (second compound 0.00316 µM, first compound 3.16 µM) was 76.8% and the viability, T/C (second compound 0.00316 µM, first compound 10 µM) was 0.24%. For the same molecule, the viability, T/C (second compound 0.01 µM, first compound 0.0316 µM) was 87.4%, the viability, T/C (second compound 0.01 µM, first compound 0.1 µM) was 83% and the viability, T/C (second compound 0.01 µM, first compound 0.316 µM) was 80.5%. For the same molecule, the viability, T/C (second compound 0.01 µM, first compound 1 µM) was 66.9%, the viability, T/C (second compound 0.01 µM, first compound 3.16 µM) was 69.4% and the viability, T/C (second compound 0.01 µM, first compound 10 µM) was 0.28%. It also gave a viability, T/C [9] of 95.6%, a viability, T/C [10] of 98.2% and a viability, T/C [11] of 73.7%. It also gave a viability, T/C [12] of 71.2%, a viability, T/C (second compound 0.0316 µM, first compound 3.16 µM) of 70.2% and a viability, T/C (second compound 0.0316 µM, first compound 10 µM) of 0.21%. For the same molecule, the viability, T/C [15] was 84.9%, the viability, T/C [16] was 74.2% and the viability, T/C [17] was 76.4%. The viability, T/C [18] was 69.7%, the viability, T/C (second compound 0.1 µM, first compound 3.16 µM) was 66.7% and the viability, T/C (second compound 0.1 µM, first compound 10 µM) was 0.28%. For the same molecule, the viability, T/C [21] was 79.6%, the viability, T/C [22] was 80.6% and the viability, T/C [23] was 77.1%. The viability, T/C [24] was 68.8%, the viability, T/C (second compound 0.316 µM, first compound 3.16 µM) was 62.5% and the viability, T/C (second compound 0.316 µM, first compound 10 µM) was 0.26%. The viability, T/C [27] was 70.8%, the viability, T/C [28] was 77.2% and the viability, T/C [29] was 80.2%. For the same molecule, the viability, T/C [30] was 71.5%, the viability, T/C (second compound 1 µM, first compound 3.16 µM) was 54.4% and the viability, T/C (second compound 1 µM, first compound 10 µM) was 0.32%.
In the case of Cc1c(S(C)(=O)=O)c(-c2cc(F)cc(N3CCN(c4ccc(NS(=O)(=O)c5ccc(NC(CCN6CCC(C(=O)OCCCP(=O)(O)O)CC6)CSc6ccccc6)c(S(=O)(=O)C(F)(F)F)c5)cc4)CC3)c2)c(-c2ccc(Cl)cc2)n1C(C)C (stereo not drawn), the viability, T/C (compound 0.0316 µM) is reported as 77.2% [middle of 7 runs], the viability, T/C (compound 0.1 µM) is reported as 71.5% [middle of 7 runs] and the viability, T/C (compound 0.316 µM) is reported as 54% [middle of 7 runs]. The viability, T/C (compound 1 µM) was 37.2% [middle of 7 runs], the viability, T/C (compound 3.16 µM) was 23.6% [middle of 7 runs] and the viability, T/C (compound 10 µM) was 18.2% [middle of 7 runs]. The IC50 (compound alone, run of 11/07/2022) was 412 nM [middle of 7 runs].
For O=C(c1ccc(F)c(F)c1Nc1ccc(I)cc1F)N1CC(O)([C@@H]2CCCCN2)C1 + Cc1c(S(C)(=O)=O)c(-c2cc(F)cc(N3CCN(c4ccc(NS(=O)(=O)c5ccc(NC(CCN6CCC(C(=O)OCCCP(=O)(O)O)CC6)CSc6ccccc6)c(S(=O)(=O)C(F)(F)F)c5)cc4)CC3)c2)c(-c2ccc(Cl)cc2)n1C(C)C, the IC50 [1] was 257 nM, the IC50 [2] was 166 nM and the IC50 [3] was < 3.16 nM. For the same molecule, the IC50 [4] was < 3.16 nM, the IC50 [5] was < 3.16 nM and the IC50 [6] was < 3.16 nM. The viability, T/C [7] was 78.6%, the viability, T/C [8] was 83.5% and the viability, T/C [9] was 97.3%. It also gave a viability, T/C [10] of 85%, a viability, T/C [11] of 42.2% and a viability, T/C [12] of 26.7%. The viability, T/C [13] was 79.8%, the viability, T/C [14] was 69.1% and the viability, T/C [15] was 84.2%. The viability, T/C [16] was 59.5%, the viability, T/C [17] was 35.3% and the viability, T/C [18] was 17.9%. For the same molecule, the viability, T/C [19] was 47.8%, the viability, T/C [20] was 46.7% and the viability, T/C [21] was 43.1%. It also gave a viability, T/C [22] of 36.8%, a viability, T/C [23] of 20.2% and a viability, T/C [24] of 5.24%. It also gave a viability, T/C [25] of 35.3%, a viability, T/C [26] of 39.4% and a viability, T/C [27] of 29.7%. It also gave a viability, T/C [28] of 20.5%, a viability, T/C [29] of 6.12% and a viability, T/C [30] of 1.37%. The viability, T/C [31] was 19.1%, the viability, T/C [32] was 25% and the viability, T/C [33] was 19.6%. It also gave a viability, T/C [34] of 6.55%, a viability, T/C [35] of 1.36% and a viability, T/C [36] of 0.4%. It also gave a viability, T/C [37] of 14.6%, a viability, T/C [38] of 11.5% and a viability, T/C [39] of 7.74%. It also gave a viability, T/C [40] of 3.48%, a viability, T/C [41] of 1.23% and a viability, T/C [42] of 2.45%.
